Results on three molecules are retold here after patent US20130095059A1, “INHALED NO DONOR KMUPS DERIVATIVE PREVENTING ALLERGIC PULMONARY VASCULAR AND BRONCHIAL INFLAMMATION VIA SUPPRESSED CYTOKINES, INOS AND INFLAMMATORY CELL COUNTS IN ASTHMA MODEL” (priority 2007, published 2013).

Experiment [1] concerns BALF cells. The experiment can be described thus: Ovalbumine model, bronchoalveolar lavage cell counts. It is filed as in vivo, BALB/c mice. The settings on record: oral 2.5 mg Kg^−1; for Neurophil: OVA 1.0 ± 0.2; for Lymphocyte / monocyte: OVA 2.4 ± 0.3; for (Table 5) / Eosinophil: OVA 37.2 ± 2.8; for Total cells: OVA 65.3 ± 3.4.
In a further experiment the test system is ROCKII. The experiment can be described thus: Protein expression (optical density %) after KMUPs salts, ROCKII. The class given is cell-based. The settings on record: 10 μM, 120 min; without treatment control 100 %.
Experiment [2] deals with MMP-9. The experiment can be described thus: Ovalbumine model, MMP-9 expression, zymography and immunostaining. It is filed as in vivo, BALB/c mice. The settings on record: oral 2.5 mg Kg^−1; non-treatment allergic animal 100 %.
Experiment [3] concerns BALF cells. The experiment can be described thus: Ovalbumine model, bronchoalveolar lavage cell counts. The class given is in vivo, BALB/c mice. The settings on record: inhalation 5 mM. On the procedure: (§1) In this long-term experiment, 6-8 week old BALB/c female mice were sensitized on days 1 and 8 by intra-peritoneal injection (i.p.) of ovalbumine (10 μg) (Sigma-Aldrich, Schnelldorf, Germany) adsorbed to 2 mg aluminum hydroxide (AlumInject; Perbio, Erembodegem, Belgium). Mice were divided into three groups. In Group 1, a control group was only exposed to saline nebulization by aerosol. The other 2 groups were subjected to ovalbumine (1%) nebulization. Before each challenge with ovalbumine, mice were either exposed to saline nebulization (Group 2) or KMUP-1 nebulization (5 mM) for 30 min by aerosol (Group 3).
After the sacrifice of mice, a cannula was placed in the trachea for bronchoalveolar lavage by gentle manual aspiration, using cold PBS-EDTA (0.05 mM, 1 ml) (Calbiochem, Darmstadt, Germany) as previously described (Cataldo D D, et al., 2002). The broncho alveolar lavage fluid (BALF) was centrifuged at 4° C. for 10 min (1200 rpm). The supernatant was frozen at −80° C. for protein assessment and the cell pellet was resuspended in PBS-EDTA (0.05 mM, 1 ml). Total cell counts were performed manually using a thoma chamber. The differential cell counts were performed using morphologic criteria on cytocentrifuged preparations (Cytospin) after staining with Diff-Quick (Dade, Belgium). Differential cell counts were performed by one blinded observer unaware of the experimental treatment.

Experiment [4] concerns MMP-9. Kind of experiment: Ovalbumine model, MMP-9 expression, zymography and immunostaining. The class given is in vivo, BALB/c mice. The settings on record: inhalation 5 mM; non-treatment allergic animal 100 %. On the procedure: as §1
The gelatinolytic activity of MMP-9 was measured by gelatin zymography as described previously (Cataldo D D, et al., 2002). Briefly, BALF (10 μl) was subjected to electrophoresis in 10% polyacrylamide gel containing gelatin (1 mg/ml). The gel was washed in 2.5% Triton X-100 to permit re-naturation of gelatinases and stained with Coomassie blue after overnight incubation. Destaining visualized clear zones of lysis against a blue background indicated the gelatinase activity (Hibbs, M S, et al., 1985).
The lung tissues were homogenized, washed with PBS and incubated in lysis buffer in addition to a protease inhibitor cocktail (Sigma, St. Louis, Mo.) to obtain extracts of lung proteins. A Western blot analysis was performed as described previously (Wu B N, et al., 2006). The samples were loaded to 10% SDS-PAGE gels and were separated at 120 V for 90 min. The blots were incubated with anti-eNOS antibody diluted at a ratio of 1:500, anti-sGCα1 antibody diluted at a ratio of 1:2000, anti-PKG antibody diluted at a ratio of 1:500, anti-VCAM-1 antibody diluted at a ratio of 1:500, anti-ICAM-1 antibody diluted at a ratio of 1:500, and anti-MMP-9 antibody diluted at a ratio of 1:600 overnight at 4° C. The membranes were stripped and re-blotted with anti-actin antibody (Sigma, St. Louis, Mo.) to verify the equal loading of protein in each lane.
Immunohistochemical analysis of eNOS enhancement by KMUP-1 was performed as follows. The lungs were perfused with saline followed by 10% formalin and then placed in 10% formalin for paraffin embedding. The lung tissues were cut into […] sections onto slides, dewaxed in 100% xylene, and then re-hydrated in graded alcohol solutions. Throughout the procedures, slides were washed as appropriate in PBS. Antigen retrieval was performed by microwave treatment for eNOS immunostaining. Sections were treated with 3% H2O2 (10 min) to inhibit endogenous peroxidases and incubated with normal serum (60 min) to reduce nonspecific binding of secondary antibodies. Sections were then incubated at 4° C. overnight with eNOS antibodies. After washing off unbounded primary antibodies, sections were incubated with secondary biotinylated antibodies against mouse or rabbit (DAKO Co., Japan) (60 min), followed by incubation in avidin/biotin/horseradish peroxidase complex (DAKO Co., Japan) (30 min) Subsequently, peroxidase activity was visualized by incubation (3 min) with 0.05% 3,3′-diaminobenzidine (DAKO Co., Japan), which gives a brown reaction product. The reaction was stopped by washing with water. The slides were counterstained with hematoxylin. For immunostaining of MMP-9 in lung tissue, the de-paraffinized 3-5 μm sections of lung tissue was performed as above eNOS, but using MMP-9 antibody.

Another experiment deals with PDE-5A. Kind of experiment: Protein expression (optical density %) after KMUPs salts, PDE-5A. The class given is cell-based. Conditions: 10 μM, 120 min; without treatment control 100 %.
Another experiment has as its system iNOS. The experiment can be described thus: Ovalbumine model, iNOS expression. It is filed as in vivo, BALB/c mice. Conditions: non-treatment allergic animal 100 %.
The next experiment concerns eNOS. The experiment can be described thus: Protein expression (optical density %) after KMUPs salts, eNOS. It is filed as cell-based. Conditions: 10 μM, 120 min; without treatment control 100 %.
In another experiment the test system is IL-5. The experiment can be described thus: Ovalbumine model, plasma IL-5 (ELISA). The class given is in vivo, mice. Conditions: OVA-sens; oral 2.5 mg Kg^−1; OVA-sens alone 43 ± 6. On the procedure: as §1
Background: ELISA stands for enzyme-linked immunosorbent assay.

Another experiment has as its system IL-13. The experiment can be described thus: Ovalbumine model, plasma IL-13 (ELISA). The class given is in vivo, mice. Conditions: OVA-sens; oral 2.5 mg Kg^−1; OVA-sens alone 35 ± 6. The protocol: as §1
In another experiment the test system is ROCK. Kind of experiment: 5-HT-induced ROCK expression in PASMCs. It is filed as cell-based, Wistar rats. The settings on record: 10 μM. The protocol: PASMCs were stimulated with 5-HT or not, as indicated. Cells were treated with KMUP-1 for 24 h before 5-HT stimulation. Whole lysates were collected and resolved by SDS-PAGE as previously described. Primary antibodies were anti-β-actin at: 1:10,000 dilution and anti-RhoA, anti-ROCK, antiphospho-ERK1/2, anti-phospho-AKT, anti-ERK1/2, anti-AKT, anti-5HTT, anti-5-HT2B and anti-eNOS at 1:1000. All blots were incubated with antibodies at 4° C. overnight. After being washed, the appropriate secondary antibodies were added at a dilution of 1:1000 for 1 h at room temperature. After extensive washing, blots were developed with a Super Signal enhanced chemiluminescence kit (Biorad, CA, USA) and visualized on Kodak AR film.
The expression of RhoA/ROCK and phosphorylation of ERK1/2 and AKT kinase in PASMCs were assessed by incubating the PASMCs with 5-HT (10 μM) for 15 min (peak time for RhoA/ROCK, ERK1/2 and AKT phosphorylation) and 5-HTT for 10 min (peak time for 5-HTT) after KMUP-1 (1-100 μM) was added to the culture of PASMCs for 24 h.

As for `Cl.Cn1c(=O)c2c(ncn2CCN2CCN(c3ccccc3[N+](=O)[O-])CC2)n(C)c1=O` [KMUP-4 HCl, 7-[2-[4-(2-nitrobenzene)piperazinyl]ethyl]-1,3-dimethylxanthine hydrochloride], the Neurophil in the experiment on BALF cells [1] was 1.1 ± 0.3 × 10^4 cell/ml; with BALF cells [3] (OVA 1.0 ± 0.2) it was 1.1 ± 0.2 × 10^4 cell/ml. The Lymphocyte is 1.7 ± 1.8 × 10^4 cell/ml in the experiment on BALF cells [1] and 1.6 ± 3.4 × 10^4 cell/ml in the experiment with BALF cells [3] (OVA 2.4 ± 0.3). Besides, the monocyte with BALF cells [1] is on record as 1.7 ± 1.8 × 10^4 cell/ml; with BALF cells [3] (OVA 2.4 ± 0.3) it was 1.6 ± 3.4 × 10^4 cell/ml. In addition, the figures for the “(Table 5)” value in the experiment with BALF cells [1] and in the experiment with BALF cells [3] (OVA 37.2 ± 2.8) were 20 ± 3.5 × 10^4 cell/ml and 21 ± 6.7 × 10^4 cell/ml, respectively. Moreover, the Eosinophil in the experiment on BALF cells [1] was 20 ± 3.5 × 10^4 cell/ml; with BALF cells [3] (OVA 37.2 ± 2.8) it was 21 ± 6.7 × 10^4 cell/ml. For the same molecule, the Total cells with BALF cells [1] is 51.8 ± 0.4 × 10^4 cell/ml; in the experiment on BALF cells [3] (OVA 65.3 ± 3.4), 53.4 ± 0.3 × 10^4 cell/ml. Also, the “ROCKII protein expression, optical densitivity %” value in the experiment with ROCKII is given as 37 ± 2.8%. In addition, the MMP-9 with MMP-9 [2] was 56 ± 3.4%; with MMP-9 [4], 37 ± 2.8%. Further, the “PDE-5A protein expression, optical densitivity %” value in the experiment on PDE-5A came out at 73 ± 3.4%. In addition, the iNOS with iNOS (inhalation 5 mM) worked out at 35 ± 7.5%; with iNOS (oral 2.5 mg Kg^−1), 31 ± 6.7%. In addition, in the experiment with eNOS, the “eNOS protein expression, optical densitivity %” value was 135 ± 7.5%.

For the molecule `CCC(C)(C)C(=O)O[C@H]1C[C@@H](C)C=C2C=C[C@H](C)[C@H](CC[C@@H]3C[C@@H](O)CC(=O)O3)[C@H]21` [Simvastatin, reference compound], in the experiment with BALF cells [1], the Neurophil is on record as 1.5 ± 0.4 × 10^4 cell/ml, the Lymphocyte is on record as 1.8 ± 0.7 × 10^4 cell/ml, the monocyte was 1.8 ± 0.7 × 10^4 cell/ml and the “(Table 5)” value was 27 ± 1.6 × 10^4 cell/ml. Besides, in the experiment with BALF cells [1], the Eosinophil is 27 ± 1.6 × 10^4 cell/ml and the Total cells is given as 52.5 ± 0.4 × 10^4 cell/ml. Besides, the MMP-9 in the experiment with MMP-9 [2] came out at 41 ± 2.5%. This molecule had an IL-5 with IL-5 of 158 ± 12.4 pg/mL. In addition, the IL-13 with IL-13 stood at 41 ± 2.5 pg/mL. Besides, the iNOS in the experiment with iNOS (oral 2.5 mg Kg^−1) is recorded as 58 ± 12.4%.

As for `C[C@@H](N)[C@H]1CC[C@H](C(=O)Nc2ccncc2)CC1` [Y27632, reference compound], in the experiment on ROCK, the ROCK expression entry is listed as “inhibited”.
